Laboratory results as given in ChEMBL document CHEMBL5352490, “SAR investigation and optimization of benzimidazole-based derivatives as antimicrobial agents against Gram-negative bacteria” (Eur J Med Chem, 2023).
In brackets after ≈: the same amount, converted by molar mass.

Legend:
[1] = system: Escherichia coli; experiment: Antibacterial activity against Escherichia coli tolC mutant incubated for 24 hrs by broth microdilution method; assay type: functional
[2] = system: Pseudomonas aeruginosa; experiment: Antibacterial activity against Pseudomonas aeruginosa ATCC 9027 incubated for 24 hrs in absence of colistin by broth microdilution method; assay type: functional
[3] = system: Acinetobacter baumannii; experiment: Synergistic antibacterial activity against Acinetobacter baumannii ATCC 19606 incubated for 24 hrs in presence of colistin by broth microdilution method; assay type: functional
[4] = system: Escherichia coli; experiment: Synergistic antibacterial activity against wild type Escherichia coli BW25113 incubated for 24 hrs in presence of colistin by broth microdilution method; assay type: functional
[5] = system: Klebsiella pneumoniae; experiment: Antibacterial activity against Klebsiella pneumoniae ATCC 1706 incubated for 24 hrs in absence of colistin by broth microdilution method; assay type: functional
[6] = system: Escherichia coli; experiment: Antibacterial activity against wild type Escherichia coli BW25113 incubated for 24 hrs in absence of colistin by broth microdilution method; assay type: functional
[7] = system: Acinetobacter baumannii; experiment: Antibacterial activity against Acinetobacter baumannii ATCC 19606 incubated for 24 hrs in absence of colistin by broth microdilution method; assay type: functional
[8] = system: Klebsiella pneumoniae; experiment: Synergistic antibacterial activity against Klebsiella pneumoniae ATCC 1706 incubated for 24 hrs in presence of colistin by broth microdilution method; assay type: functional
[9] = system: Pseudomonas aeruginosa; experiment: Synergistic antibacterial activity against Pseudomonas aeruginosa ATCC 9027 incubated for 24 hrs in presence of colistin by broth microdilution method; assay type: functional
[10] = system: Escherichia coli; experiment: Bacteriostatic effect in Escherichia coli JW55031 assessed as log reduction in bacterial count at 10 times MIC measured at 24 hrs by time kill assay; assay type: functional
[11] = Cytotoxicity against African green monkey Vero cells assessed as reduction in cell viability incubated for 24 hrs by MTS assay; assay type: toxicity, cell-based; conditions: chlorocebus sabaeus
[12] = system: Escherichia coli; experiment: Bacteriostatic effect in Escherichia coli JW55031 assessed as log reduction in bacterial burden at 10 times MIC measured after 24 hrs by time kill assay; assay type: functional
[13] = system: Escherichia coli; experiment: Bacteriostatic effect in Escherichia coli JW55031 assessed as log reduction in bacterial count at 5 times MIC measured at 24 hrs by time kill assay; assay type: functional

| Compound | MIC [1] | other results |
| --- | --- | --- |
| Cc1ccc(Cn2c(-c3cccc(-c4ncon4)c3)nc3ccccc32)cc1 | > 64 µg/mL |  |
| Cc1ccc(Cn2c(-c3cccc(NS(C)(=O)=O)c3)nc3ccc(C#N)cc32)cc1 | > 64 µg/mL |  |
| Cc1ccc(Cn2c(-c3cccc(NS(=O)(=O)c4cccc(N)c4)c3)nc3ccccc32)cc1 | 2 µg/mL (≈ 4.27 µM) |  |
| Cc1ccc(Cn2c(-c3cccc(NS(C)(=O)=O)c3)nc3cc(N)ccc32)cc1 | > 64 µg/mL |  |
| Cc1ccc(Cn2c(-c3cccc(NS(C)(=O)=O)c3)nc3ccc(C)cc32)cc1 | > 64 µg/mL |  |
| Cc1ccc(Cn2c(-c3cccc(NS(C)(=O)=O)c3)nc3cc(C#N)ccc32)cc1 | > 64 µg/mL |  |
| Cc1ccc(Cn2c(-c3cccc(NS(C)(=O)=O)c3)nc3cc(C(=O)O)ccc32)cc1 | > 64 µg/mL |  |
| CC(=O)Nc1ccc(S(=O)(=O)Nc2cccc(-c3nc4ccccc4n3Cc3ccc(C)cc3)c2)cc1 | > 64 µg/mL |  |
| Cc1ccc(Cn2c(-c3cccc(NS(=O)(=O)c4ccc(N)cc4)c3)nc3ccccc32)cc1 | > 64 µg/mL |  |
| Cc1ccc(Cn2c(-c3cccc(NS(C)(=O)=O)c3)nc3cc(C)ccc32)cc1 | > 64 µg/mL |  |
| CS(=O)(=O)Nc1cccc(-c2nc3ccccc3n2Cc2ccc(C(=N)NO)cc2)c1 | > 64 µg/mL |  |
| Cc1ccc(Cn2c(-c3cccc(NS(C)(=O)=O)c3)nc3ccc(C(=N)NO)cc32)cc1 | > 64 µg/mL |  |
| CC(=O)NC[C@H]1CN(c2ccc(N3CCOCC3)c(F)c2)C(=O)O1 [LINEZOLID] | 8 µg/mL (≈ 23.7 µM) |  |
| CCOC(=O)Nc1ccc2c(c1)nc(-c1cccc(NS(C)(=O)=O)c1)n2Cc1ccc(C)cc1 | > 64 µg/mL |  |
| Cc1ccc(Cn2c(-c3cccc(NS(=O)(=O)c4ccc(F)c(Cl)c4)c3)nc3ccccc32)cc1 | 2 µg/mL (≈ 3.95 µM) |  |
| CC[C@H]1OC(=O)[C@H](C)[C@@H](O[C@H]2C[C@@](C)(OC)[C@@H](O)[C@H](C)O2)[C@H](C)[C@@H](O[C@@H]2O[C@H](C)C[C@H](N(C)C)[C@H]2O)[C@](C)(O)C[C@@H](C)C(=O)[C@H](C)[C@@H](O)[C@]1(C)O [ERYTHROMYCIN] |  | MIC [2]: > 64 µg/mL; MIC [3]: 0.25 µg/mL; MIC [4]: 2 µg/mL; MIC [5]: 64 µg/mL (≈ 87.2 µM); MIC [6]: 32 µg/mL (≈ 43.6 µM); MIC [7]: 8 µg/mL (≈ 10.9 µM); MIC [8]: 4 µg/mL; MIC [9]: 8 µg/mL |
| Cc1ccc(Cn2c(-c3cccc(NS(C)(=O)=O)c3)nc3ccc(Br)cc32)cc1 | > 64 µg/mL |  |
| CCOC(=O)c1ccc2nc(-c3cccc(NS(C)(=O)=O)c3)n(Cc3ccc(C)cc3)c2c1 | > 64 µg/mL |  |
| Cc1ccc(Cn2c(-c3cccc(NS(=O)(=O)c4ccccc4)c3)nc3ccccc32)cc1 | 1 µg/mL (≈ 2.2 µM) |  |
| Cc1ccc(Cn2c(-c3cccc(-c4nnn[nH]4)c3)nc3ccccc32)cc1 | 8 µg/mL (≈ 21.8 µM) |  |
| Cc1ccc(Cn2c(-c3cccc(NS(=O)(=O)c4cccc(Br)c4)c3)nc3ccccc32)cc1 | 0.5 µg/mL (≈ 0.939 µM) |  |
| Cc1ccc(Cn2c(-c3cccc(NS(C)(=O)=O)c3)nc3cc(C(F)(F)F)ccc32)cc1 | > 64 µg/mL |  |
| COc1ccc(S(=O)(=O)Nc2cccc(-c3nc4ccccc4n3Cc3ccc(C)cc3)c2)cc1 | 4 µg/mL (≈ 8.27 µM) |  |
| Cc1ccc(Cn2c(-c3cccc(NS(C)(=O)=O)c3)nc3cc(C(=N)NO)ccc32)cc1 | > 64 µg/mL |  |
| Cc1ccc(Cn2c(-c3cccc(C(=N)N)c3)nc3ccccc32)cc1 | 32 µg/mL (≈ 94 µM) |  |
| Cc1ccc(Cn2c(-c3cccc(NS(=O)(=O)c4cccc([N+](=O)[O-])c4)c3)nc3ccccc32)cc1 | 2 µg/mL (≈ 4.01 µM) |  |
| Cc1ccc(Cn2c(-c3cccc(NS(=O)(=O)c4ccc(F)c(F)c4)c3)nc3ccccc32)cc1 | 1 µg/mL (≈ 2.04 µM) |  |

| Compound | MIC [1] | other results |
| --- | --- | --- |
| CCCCCCCCCC(=O)N[C@@H](Cc1c[nH]c2ccccc12)C(=O)N[C@H](CC(N)=O)C(=O)N[C@@H](CC(=O)O)C(=O)N[C@@H]1C(=O)NCC(=O)N[C@@H](CCCN)C(=O)N[C@@H](CC(=O)O)C(=O)N[C@H](C)C(=O)N[C@@H](CC(=O)O)C(=O)NCC(=O)N[C@H](CO)C(=O)N[C@@H]([C@H](C)CC(=O)O)C(=O)N[C@@H](CC(=O)c2ccccc2N)C(=O)O[C@@H]1C |  | MIC [2]: > 128 µg/mL; MIC [3]: > 128 µg/mL; MIC [4]: > 128 µg/mL; MIC [5]: > 128 µg/mL; MIC [6]: > 128 µg/mL; MIC [7]: > 128 µg/mL; MIC [8]: > 128 µg/mL; MIC [9]: > 128 µg/mL |
| CS(=O)(=O)Nc1cccc(-c2nc3ccccc3n2Cc2ccc(-c3nnn[nH]3)cc2)c1 | > 64 µg/mL |  |
| Cc1ccc(Cn2c(-c3cccc(NS(C)(=O)=O)c3)nc3cc(Br)ccc32)cc1 | > 64 µg/mL |  |
| Cc1ccc(Cn2c(-c3cccc(NS(=O)(=O)c4ccc(Br)cc4)c3)nc3ccccc32)cc1 | > 64 µg/mL |  |
| Cc1ccc(Cn2c(-c3cccc(NS(=O)(=O)c4ccc(C(F)(F)F)cc4)c3)nc3ccccc32)cc1 | > 64 µg/mL |  |
| CS(=O)(=O)Nc1cccc(-c2nc3ccccc3n2Cc2ccc(-c3ncon3)cc2)c1 | > 64 µg/mL |  |
| Cc1ccc(Cn2c(-c3cccc(NS(=O)(=O)c4ccc(-c5ccccc5)cc4)c3)nc3ccccc32)cc1 | > 64 µg/mL |  |
| GENTAMICIN | 0.25 µg/mL |  |
| Cc1ccc(Cn2c(-c3cccc(NS(=O)(=O)c4ccc([N+](=O)[O-])cc4)c3)nc3ccccc32)cc1 | > 64 µg/mL |  |
| Cc1ccc(Cn2c(-c3cccc(NS(=O)(=O)C4CC4)c3)nc3ccccc32)cc1 | 1 µg/mL (≈ 2.4 µM) |  |
| Cc1ccc(Cn2c(-c3cccc(NS(=O)(=O)c4ccc(C(C)(C)C)cc4)c3)nc3ccccc32)cc1 | > 64 µg/mL |  |
| Cc1ccc(Cn2c(-c3cccc(NS(=O)(=O)c4ccc(C(C)C)cc4)c3)nc3ccccc32)cc1 | > 64 µg/mL |  |
| Cc1ccc(Cn2c(-c3cccc(NS(C)(=O)=O)c3)nc3ccc(C(=O)O)cc32)cc1 | > 64 µg/mL |  |
| Cc1ccc(Cn2c(-c3cccc(NS(C)(=O)=O)c3)nc3cccc(C(=O)O)c32)cc1 | > 64 µg/mL |  |
| Cc1ccc(Cn2c(-c3cccc(NS(=O)(=O)c4cccc(Cl)c4)c3)nc3ccccc32)cc1 | 0.125 µg/mL (≈ 0.256 µM) | MIC [2]: > 64 µg/mL; log(activity) [10]: 2.9; CC50 at 24 h [11]: > 128 µg/mL; MIC [3]: 4 µg/mL; MIC [4]: 16 µg/mL; log(activity) [12]: 0.4; MIC [5]: > 64 µg/mL; MIC [6]: > 64 µg/mL; MIC [7]: > 64 µg/mL; MIC [8]: 8 µg/mL; log(activity) [13]: 2.54; MIC [9]: 16 µg/mL |
| Cc1ccc(Cn2c(-c3cccc(NS(=O)(=O)c4ccc(OC(F)(F)F)cc4)c3)nc3ccccc32)cc1 | > 64 µg/mL |  |
| Cc1ccc(Cn2c(-c3cccc(NS(C)(=O)=O)c3)nc3ccccc32)cc1 | 2 µg/mL (≈ 5.11 µM) |  |
| COc1ccc(S(=O)(=O)Nc2cccc(-c3nc4ccccc4n3Cc3ccc(C)cc3)c2)cc1OC | 4 µg/mL (≈ 7.79 µM) |  |
| Cc1ccc(Cn2c(-c3cccc(NS(=O)(=O)c4ccc(Cl)cc4)c3)nc3ccccc32)cc1 | 2 µg/mL (≈ 4.1 µM) |  |
| Cc1ccc(Cn2c(-c3cccc(NS(C)(=O)=O)c3)nc3ccc(N)cc32)cc1 | > 64 µg/mL |  |
| CCOC(=O)Nc1ccc2nc(-c3cccc(NS(C)(=O)=O)c3)n(Cc3ccc(C)cc3)c2c1 | > 64 µg/mL |  |
| Cc1ccc(Cn2c(-c3cccc(NS(=O)(=O)c4ccc(C)cc4)c3)nc3ccccc32)cc1 | 2 µg/mL (≈ 4.28 µM) |  |
| Cc1ccc(Cn2c(-c3cccc(C(=N)NO)c3)nc3ccccc32)cc1 | > 64 µg/mL |  |
| CCOC(=O)c1cccc2nc(-c3cccc(NS(C)(=O)=O)c3)n(Cc3ccc(C)cc3)c12 | > 64 µg/mL |  |
| Cc1ccc(Cn2c(-c3cccc(NS(=O)(=O)c4ccccc4[N+](=O)[O-])c3)nc3ccccc32)cc1 | 1 µg/mL (≈ 2.01 µM) |  |
| CCOC(=O)c1ccc2c(c1)nc(-c1cccc(NS(C)(=O)=O)c1)n2Cc1ccc(C)cc1 | > 64 µg/mL |  |
| Cc1ccc(Cn2c(-c3cccc(NS(=O)(=O)c4ccc5ccccc5c4)c3)nc3ccccc32)cc1 | > 64 µg/mL |  |
